Our source for the IC50 values is US20240368135A1 (VERTEX PHARMACEUTICALS INCORPORATED, priority 2021, published 2024).

Usually IC50 stands for the concentration at which inhibition is half-maximal.

Molecules are shown by their SMILES. Where a name gives a salt, the structure may show the parent alone.

Chain of human NaV 1.8 (Q9Y5Y9 126-399 limits assumed): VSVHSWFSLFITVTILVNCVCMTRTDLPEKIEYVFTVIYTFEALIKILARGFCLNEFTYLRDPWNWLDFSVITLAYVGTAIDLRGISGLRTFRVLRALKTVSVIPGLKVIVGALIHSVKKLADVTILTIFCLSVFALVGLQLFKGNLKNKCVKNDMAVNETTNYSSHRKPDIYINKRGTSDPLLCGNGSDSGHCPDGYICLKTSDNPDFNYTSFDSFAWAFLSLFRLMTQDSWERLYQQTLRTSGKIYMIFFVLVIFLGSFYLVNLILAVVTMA
Chain of human NaV 1.8 (Q9Y5Y9 660-890 limits assumed): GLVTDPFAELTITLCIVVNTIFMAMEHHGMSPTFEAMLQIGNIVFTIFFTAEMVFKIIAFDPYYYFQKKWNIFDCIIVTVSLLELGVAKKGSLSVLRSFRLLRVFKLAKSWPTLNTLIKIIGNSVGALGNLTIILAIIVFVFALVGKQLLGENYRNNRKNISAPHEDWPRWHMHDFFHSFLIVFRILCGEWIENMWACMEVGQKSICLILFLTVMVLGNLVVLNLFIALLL
Chain of human NaV 1.8 (Q9Y5Y9 1148-1722 limits assumed): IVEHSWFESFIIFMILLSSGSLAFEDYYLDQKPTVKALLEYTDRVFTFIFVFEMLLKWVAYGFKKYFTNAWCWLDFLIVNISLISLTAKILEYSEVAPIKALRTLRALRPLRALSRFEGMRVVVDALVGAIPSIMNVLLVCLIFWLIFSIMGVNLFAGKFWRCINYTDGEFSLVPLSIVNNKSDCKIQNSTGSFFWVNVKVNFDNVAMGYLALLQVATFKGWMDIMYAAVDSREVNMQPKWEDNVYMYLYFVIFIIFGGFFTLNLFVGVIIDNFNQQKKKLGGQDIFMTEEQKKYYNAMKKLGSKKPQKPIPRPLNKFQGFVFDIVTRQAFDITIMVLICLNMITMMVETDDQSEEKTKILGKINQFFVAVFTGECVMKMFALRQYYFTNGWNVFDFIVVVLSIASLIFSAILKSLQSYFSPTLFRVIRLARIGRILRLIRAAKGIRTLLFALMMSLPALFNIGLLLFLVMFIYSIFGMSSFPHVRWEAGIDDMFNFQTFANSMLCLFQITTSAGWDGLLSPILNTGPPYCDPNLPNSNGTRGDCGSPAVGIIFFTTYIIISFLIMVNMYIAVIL

In one test the target is human NaV 1.8 (Homo sapiens, UniProt Q9Y5Y9). Kind of test: E-VIPR assay detecting and measuring NaV inhibition properties. Format: cell-based. The following applies: HEK cells expressing truncated human NaV 1.8; in the presence of human serum (compound numbers followed by *); read-out: IC50 in the E-VIPR Assay, performed in the presence of human serum. The method, boiled down:
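Membrane potential was followed by coumarin/oxonol FRET during electrical field stimulation of matrigel-seeded HEK cells carrying truncated human NaV1.8 plus KIR2.1. Dosing used 11 points, 3-fold steps, top 300 nM final, 0.625% DMSO, with or without 25% human serum.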
`CNCc1cc(NC(=O)C2OC(C)(C(F)(F)F)C(C)C2c2ccc(F)c(F)c2OC)c(F)cn1` (centres unmarked) [Compound 58, 3-(3,4-difluoro-2-methoxy-phenyl)-N-[5-fluoro-2-(methylaminomethyl)-4-pyridyl]-4,5-dimethyl-5-(trifluoromethyl)tetrahydrofuran-2-carboxamide]: the IC50 was no less than 1000 nM.

As for `CCOc1c([C@H]2C[C@@](C)(C(F)(F)F)O[C@@H]2C(=O)Nc2ccnc(C(O)CO)c2)ccc(F)c1F` (single isomer, unassigned) [Compound 709], the IC50 is no less than 1000 nM.

Consider `C[C@H]1[C@@H](c2ccc(F)c(F)c2OC(F)F)[C@H](C(=O)Nc2cccnc2)O[C@@]1(C)C(F)(F)F` (single isomer, unassigned) [Compound 65], for which the IC50 lay within 10 to 100 nM.

`COc1c([C@H]2C[C@@](C)(C(F)(F)F)O[C@@H]2C(=O)Nc2cn(S(C)(=O)=O)nc2C)ccc(F)c1F` (stereo in doubt) [Compound 683, rel-(2S,3R,5S)-3-(3,4-difluoro-2-methoxyphenyl)-5-methyl-N-(3-methyl-1-(methylsulfonyl)-1H-pyrazol-4-yl)-5-(trifluoromethyl)tetrahydrofuran-2-carboxamide]: the IC50 was no less than 1000 nM.

Still in this test, the particulars now being: HEK cells expressing truncated human NaV 1.8; no human serum; read-out: IC50 in the E-VIPR Assay.
Consider `COC(=O)COc1c([C@H]2[C@H](C(=O)Nc3cn(C(F)F)nc3C)O[C@@](C)(C(F)(F)F)[C@H]2C)ccc(F)c1F` [Compound 602, methyl 2-[6-[(2R,3S,4S,5R)-2-[[1-(difluoromethyl)-3-methyl-pyrazol-4-yl]carbamoyl]-4,5-dimethyl-5-(trifluoromethyl)tetrahydrofuran-3-yl]-2,3-difluoro-phenoxy]acetate], for which the IC50 is less than 10 nM.

Take `COc1c([C@H]2[C@H](C(=O)Nc3ccnc(N4C[C@@H]5C[C@@H](N5)C4=O)c3)O[C@@](C)(C(F)(F)F)[C@H]2C)ccc(F)c1F` (single isomer, unassigned) [Compound 492, rel-(2R*,3S*,4S*,5R*)-3-(3,4-difluoro-2-methoxyphenyl)-4,5-dimethyl-N-(2-((1R,5S)-2-oxo-3,6-diazabicyclo[3.1.1]heptan-3-yl)pyridin-4-yl)-5-(trifluoromethyl)tetrahydrofuran-2-carboxamide]: the IC50 was in the range of 10 to 100 nM.

Regarding `COc1c(C2C(C(=O)Nc3cccc(P(C)(C)=O)c3)OC(C)(C(F)(F)F)C2C)ccc(F)c1F` (single isomer, unassigned) [Compound 42, 3-(3,4-difluoro-2-methoxy-phenyl)-N-(3-dimethylphosphorylphenyl)-4,5-dimethyl-5-(trifluoromethyl)tetrahydrofuran-2-carboxamide], the IC50 was less than 10 nM.

`COc1c([C@H]2[C@H](C(=O)Nc3ccnc(C(C)(O)CO)c3)O[C@@](C)(C(F)(F)F)[C@H]2C)ccc(F)c1F` (single isomer, unassigned) [Compound 202, rel-(2R*,3S*,4S*,5R*)-3-(3,4-difluoro-2-methoxyphenyl)-N-(2-(1,2-dihydroxypropan-2-yl)pyridin-4-yl)-4,5-dimethyl-5-(trifluoromethyl)tetrahydrofuran-2-carboxamide]: the concentration for half-maximal inhibition (IC50) is less than 10 nM.

Turning to `COc1c(C2C(C(=O)Nc3ccnc(C(C)(C)O)c3)OC(C)(C(F)(F)F)C2C)ccc(F)c1F` (single isomer, unassigned) [Compound 47, 3-(3,4-difluoro-2-methoxy-phenyl)-N-[2-(1-hydroxy-1-methyl-ethyl)-4-pyridyl]-4,5-dimethyl-5-(trifluoromethyl)tetrahydrofuran-2-carboxamide], the IC50 is no less than 1000 nM.

Consider `C[C@H]1[C@@H](c2ccc(F)c(F)c2O[C@H]2C[C@@H](O)C2)[C@H](C(=O)Nc2ccnnc2)O[C@@]1(C)C(F)(F)F` [Compound 658, (2R,3S,4S,5R)-3-(3,4-difluoro-2-((1s,3R)-3-hydroxycyclobutoxy)phenyl)-4,5-dimethyl-N-(pyridazin-4-yl)-5-(trifluoromethyl)tetrahydrofuran-2-carboxamide], for which the IC50 fell in the range of 10 to 100 nM.

Take `C[C@@H]1[C@H](c2ccc(F)c(F)c2OC(F)F)[C@@H](C(=O)Nc2ccc(CCO)nc2)O[C@]1(C)C(F)(F)F` (single isomer, unassigned) [Compound 459]: the IC50 is no less than 1000 nM.

With `CN=S(C)(=O)c1cc(NC(=O)C2OC(C)(C(F)(F)F)C(C)C2c2ccc(F)c(F)c2OC)ccn1` (single isomer, unassigned) [Compound 530, 3-(3,4-difluoro-2-methoxy-phenyl)-N-[2-(N,S-dimethylsulfonimidoyl)-4-pyridyl]-4,5-dimethyl-5-(trifluoromethyl)tetrahydrofuran-2-carboxamide], the IC50 was less than 10 nM.

On to `C[C@H]1[C@@H](c2ccc(F)c(F)c2OCC2COC2)[C@H](C(=O)Nc2ccc(C(C)(C)O)nc2)O[C@@]1(C)C(F)(F)F` [Compound 581, (2R,3S,4S,5R)-3-(3,4-difluoro-2-(oxetan-3-ylmethoxy)phenyl)-N-(6-(2-hydroxypropan-2-yl)pyridin-3-yl)-4,5-dimethyl-5-(trifluoromethyl)tetrahydrofuran-2-carboxamide (TFA salt)], for which the IC50 was in the range of 100 to 1000 nM.

Take `C[C@H]1[C@@H](c2ccc(F)c(F)c2OCCN2CCOCC2)[C@H](C(=O)Nc2ccn(C)c(=O)c2)O[C@@]1(C)C(F)(F)F` [Compound 588, (2R,3S,4S,5R)-3-(3,4-difluoro-2-(2-morpholinoethoxy)phenyl)-4,5-dimethyl-N-(1-methyl-2-oxo-1,2-dihydropyridin-4-yl)-5-(trifluoromethyl)tetrahydrofuran-2-carboxamide]: the IC50 was 10 to 100 nM.

Regarding `COc1c([C@H]2[C@H](C(=O)Nc3cc(C(O)CN(C)C)ncc3F)O[C@@](C)(C(F)(F)F)[C@H]2C)ccc(F)c1F` (single isomer, unassigned) [Compound 377], the IC50 was less than 10 nM.

For `COCC(O)c1cc(NC(=O)[C@@H]2O[C@@](C)(C(F)(F)F)[C@@H](C)[C@H]2c2ccc(F)c(F)c2OCCN2CC(F)C2)ccn1` (single isomer, unassigned) [Compound 608, rel-(2R*,3S*,4S*,5R*)-3-(3,4-difluoro-2-(2-(3-fluoroazetidin-1-yl)ethoxy)phenyl)-N-(2-(1-hydroxy-2-methoxyethyl)pyridin-4-yl)-4,5-dimethyl-5-(trifluoromethyl)tetrahydrofuran-2-carboxamide], the 50% inhibitory concentration (IC50) is 10 to 100 nM.

With `Cc1nn(S(C)(=O)=O)cc1NC(=O)[C@@H]1O[C@@](C)(C(F)(F)F)[C@@H](C)[C@H]1c1ccc(F)c(F)c1OCCO` [Compound 538, (2R,3S,4S,5R)-3-(3,4-difluoro-2-(2-hydroxyethoxy)phenyl)-4,5-dimethyl-N-(3-methyl-1-(methylsulfonyl)-1H-pyrazol-4-yl)-5-(trifluoromethyl)tetrahydrofuran-2-carboxamide], the IC50 is less than 10 nM.

For `Cc1nn(C)cc1NC(=O)[C@@H]1O[C@@](C)(C(F)(F)F)[C@@H](C)[C@H]1c1ccc(F)c(F)c1OCCO` [Compound 557, (2R,3S,4S,5R)-3-(3,4-difluoro-2-(2-hydroxyethoxy)phenyl)-N-(1,3-dimethyl-1H-pyrazol-4-yl)-4,5-dimethyl-5-(trifluoromethyl)tetrahydrofuran-2-carboxamide], the concentration for half-maximal inhibition (IC50) was in the range of 10 to 100 nM.

As to `Cc1ncc(NC(=O)[C@@H]2O[C@@](C)(C(F)(F)F)[C@@H](C)[C@H]2c2ccc(F)c(F)c2OCCO)cn1` [Compound 569, (2R,3S,4S,5R)-3-(3,4-difluoro-2-(2-hydroxyethoxy)phenyl)-4,5-dimethyl-N-(2-methylpyrimidin-5-yl)-5-(trifluoromethyl)tetrahydrofuran-2-carboxamide], the IC50 was 100 to 1000 nM.

Regarding `COc1c([C@H]2[C@H](C(=O)NC3CCOCC3)O[C@@](C)(C(F)(F)F)[C@H]2C)ccc(F)c1F` [Compound 269, (2R,3S,4S,5R)-3-(3,4-difluoro-2-methoxyphenyl)-4,5-dimethyl-N-(tetrahydro-2H-pyran-4-yl)-5-(trifluoromethyl)tetrahydrofuran-2-carboxamide], the IC50 was no less than 1000 nM.

Consider `COc1c(C2C(C(=O)Nc3ccnc(C(O)C(C)O)c3)OC(C)(C(F)(F)F)C2C)ccc(F)c1C` (single isomer, unassigned) [Compound 144], for which the IC50 is less than 10 nM.

`COc1c([C@H]2[C@H](C(=O)Nc3ccnc(CN4CCCC4)c3)O[C@@](C)(C(F)(F)F)[C@H]2C)ccc(F)c1F` [Compound 184, (2R,3S,4S,5R)-3-(3,4-difluoro-2-methoxyphenyl)-4,5-dimethyl-N-(2-(pyrrolidin-1-ylmethyl)pyridin-4-yl)-5-(trifluoromethyl)tetrahydrofuran-2-carboxamide]: the IC50 is less than 10 nM.

`CCOc1c([C@@H]2[C@@H](C(=O)Nc3cncc(S(C)(=O)=O)c3)O[C@](C)(C(F)(F)F)[C@@H]2C)ccc(F)c1F` (stereo in doubt) [Compound 106, rel-(2S,3R,4R,5S)-3-(2-ethoxy-3,4-difluorophenyl)-4,5-dimethyl-N-(5-(methylsulfonyl)pyridin-3-yl)-5-(trifluoromethyl)tetrahydrofuran-2-carboxamide]: the IC50 lay within 100 to 1000 nM.

For `COc1c([C@H]2[C@H](C(=O)Nc3ccnc(N4C(=O)CNC[C@@H]4C)c3)O[C@@](C)(C(F)(F)F)[C@H]2C)ccc(F)c1F` [Compound 479, (2R,3S,4S,5R)-3-(3,4-difluoro-2-methoxyphenyl)-4,5-dimethyl-N-(2-((S)-2-methyl-6-oxopiperazin-1-yl)pyridin-4-yl)-5-(trifluoromethyl)tetrahydrofuran-2-carboxamide], the IC50 is 10 to 100 nM.

For `COCC(C)(C)N(C)Cc1cc(NC(=O)[C@@H]2O[C@@](C)(C(F)(F)F)[C@@H](C)[C@H]2c2ccc(F)c(F)c2OC)ccn1` [Compound 15], the IC50 lay within 10 to 100 nM.

Regarding `C[C@H]1[C@@H](c2ccc(F)c(F)c2OCCO)[C@H](C(=O)Nc2cc(C3CC3)n(C)n2)O[C@@]1(C)C(F)(F)F` [Compound 546, (2R,3S,4S,5R)-N-(5-cyclopropyl-1-methyl-1H-pyrazol-3-yl)-3-(3,4-difluoro-2-(2-hydroxyethoxy)phenyl)-4,5-dimethyl-5-(trifluoromethyl)tetrahydrofuran-2-carboxamide], the IC50 was no less than 1000 nM.
